Assay results reported in US8206751B2, “Class of therapeutics that enhance small molecule diffusion” (Diffusion Pharmaceuticals LLC, priority 2007, dated 2012).

What was measured:
[1] = Glucose diffusion through aqueous kosmotrope solutions, microinterferometric method; assay type: physicochemical; details: about 10 μM kosmotrope in water, 25° C., glucose 0.9 molar
Method: The diffusion of glucose through aqueous solutions of the above-mentioned kosmotropes was measured using a microinterferometric method, Secor, R. M., AIChE Journal, 11: 452-456, 1965.
In this method, a wedge is formed by two microscope slides that have a partial coating of a metal such as aluminum on the inner sides of the wedge. The wedge is placed on a microscope stage and illuminated from below using some source of monochromatic light, such as a helium-neon laser. As the light passes through the wedge, the partial coating of aluminum allows some light to be transmitted, while some is reflected. This creates constructive and destructive lines known as interference fringes. The interference fringes can then be magnified by a microscope and recorded with a camera.
Molecules of glucose will diffuse along a concentration gradient of glucose. Since the refractive index of the solution is related to the concentration of the glucose, the fringes at a given point will change with time. […]
Solutions of three kosmotropes (proline, betaine and trehalose) in water were made, so that the solutions contained about 10 μM of each of the kosmotropes. Using the trehalose solution as an example, the diffusivity of glucose through each of these solutions was then measured in the following way.
The trehalose solution was divided into two parts. […] A camera recorded the resulting fringe pattern. […]

[2] = Oxygen transport across the skin, transcutaneous oxygen monitor (TCOM); assay type: in vivo; details: normal rat switched to 100% oxygen at time zero, intravenous injection in the femoral vein, versus saline control
Method: Diffusion enhancing compounds such as kosmotropes increase the oxygen transport in vivo. In the subject experiment, the oxygen diffusing through the skin of a normal, non-diseased rat was measured using a transcutaneous oxygen monitor (TCOM). In the subject study, the rats breathed air and then were switched to breathing 100% oxygen at a time equal to zero. Also at time zero, the rats were injected (intravenously in the femoral vein) with either saline (control), trehalose, glycine betaine, or TSC.

[3] = TSC concentrations from 1 μmole/liter to around 200 μmole/liter; cited from earlier work
[4] = rats breathing 100% oxygen; cited from earlier work

Structure (SMILES)	diffusivity of glucose through the solution compared with plain water [1]	oxygen transport across the skin (TCOM readings) [2]	increase in the diffusivity of glucose through water [3]	brain oxygen level [4]
OC[C@H]1O[C@H](O[C@H]2O[C@H](CO)[C@@H](O)[C@H](O)[C@H]2O)[C@H](O)[C@@H](O)[C@@H]1O [trehalose, Trehalose]	greater than the value of glucose through plain water	increased oxygen transport across the skin		
C[N+](C)(C)CC(=O)O [glycine betaine, Glycine betaine]		increased oxygen transport across the skin		
CC(/C=C/C=C(\C)C(=O)[O-])=C\C=C\C=C(C)\C=C\C=C(/C)C(=O)[O-].[Na+].[Na+] [TSC, trans sodium crocetinate]		increased oxygen transport across the skin	around 30%	further increased the brain oxygen level
